These results are taken from patent publication US20260224582A1, “Heterobicyclic amides as inhibitors of CD38” (Cerevance, Inc., priority 2022, published 2026).

pIC50: −log10 of the molar value. Where two headings read alike, the source gives them in different places.

For data set [1], the target named is T1, Recombinant mouse CD38 (Mus musculus, UniProt P56528).
T1 sequence (P56528 1-304): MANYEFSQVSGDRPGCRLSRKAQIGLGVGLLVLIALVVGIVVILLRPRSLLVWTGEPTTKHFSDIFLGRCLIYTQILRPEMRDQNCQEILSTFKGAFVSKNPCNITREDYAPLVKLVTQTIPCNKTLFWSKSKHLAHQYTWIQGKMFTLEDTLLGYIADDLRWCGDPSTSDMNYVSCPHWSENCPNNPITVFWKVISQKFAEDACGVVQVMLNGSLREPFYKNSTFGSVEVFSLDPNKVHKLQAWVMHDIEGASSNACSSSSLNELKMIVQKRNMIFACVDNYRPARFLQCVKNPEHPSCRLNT
Kind of data set: Mouse CD38 hydrolase assay (fluorescence-based, ε-NAD substrate). It counts as biochemical. Conditions: recombinant mouse CD38 0.4 nM, 12 μM ε-NAD, 30 min preincubation at 25° C. Summed up: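 Recombinant mouse CD38 (0.4 nM) preincubated with compound 30 min at 25° C in PBS without Ca/Mg, 0.005% BSA, pH 7.4, then 12 μM ε-NAD added. Fluorescence (ex 300/em 410 nm) read at 0 and 6 min, difference used. IC50 from 10-point half-log curve, four-parameter fit, normalised to tool-inhibitor low control.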

Data set [2] in a line: PK brain permeability after single oral gavage. It counts as in vivo, C57BL/6 mice. Conditions: mice, 10 mg/kg oral, 2 hours post dose; for concentration at 2 h / Kp at 2 h: male, C57BL/6, mouse; for concentration at 2 h: po, 10 mg/kg; for Kp at 2 h: read-out: Kpu, u (unbound partitioning coefficient, Cb,u to Cp,u); for brain permeability (in words): statement on Table 3. How it is done:
The distribution of compounds into the brain in vivo was determined in C57BL/6 mice following single oral (po) gavage administration.
Test compounds were formulated at 1 mg/mL in 0.5% HPMC E4M, 0.2% Tween 80 in water to achieve solutions or homogenous suspensions suitable for po administration. Formulations were administered to 3 male C57BL/6 mice at a volume of 10 mL/kg resulting in a dose level of 10 mg/kg. Blood samples were collected at 1 and 2 hours post dose into tubes containing K2EDTA as anticoagulant, processed to plasma and stored at −60° C. or lower until LC-MS/MS analysis. Brains were harvested 2 hours post dose, rinsed with saline, dried, weighed and homogenised under ice cold conditions. Brain homogenates were stored at −60° C. or lower until LC-MS/MS analysis.
Dose formulation concentrations were verified using a LC-UV or LC-MS/MS method. Test compound concentrations in plasma and brain homogenate were quantitatively determined using LC-MS/MS methods developed in individual matrices against calibration curves with QC samples included and acceptance criteria as per CRO SOPs. Concentrations in brain homogenate were corrected for the dilution factor used to prepare the homogenate to give concentrations in whole brain tissue.
Plasma and brain concentration versus time data were reported and plotted in excel. The brain to plasma ratio at 2 hours post dose was calculated for each animal using the following equation:
Brain: plasma=brain concentration (ng/g) at 2 h/plasma concentration (ng/ml) at 2 h As only unbound test compound is available to exert an effect on the target, unbound plasma (Cp,u) and unbound brain (Cb,u) concentrations were calculated by correcting the total concentrations for the unbound fraction in plasma (fu,p) or brain (fu,b) determined from in vitro plasma protein or brain tissue binding assays using the following equations: […]
The unbound partitioning coefficient (Kpu,u) was then calculated based on the ratio of Cb,u to Cp,u using the following equation: […]
In these studies, mice were orally administrated a 10 mg/kg dose and sacrificed 2 hours post dose and tissue samples (brain homogenate and plasma) were analyzed subsequently as described above.

The mark [3] stands for this setting: brain, read-out: total brain conc.
Where [4] appears, read: brain, total corrected for unbound fraction in brain, read-out: free brain conc.
Where [5] appears, read: plasma, read-out: total plasma conc.
Setting [6] is: plasma, total corrected for unbound fraction in plasma, read-out: free plasma conc.

`O=C(N[C@H]1CC[C@H](NCC(F)(F)F)CC1)c1nc(-n2ccnc2)nc2ncccc12` [Example 4, 2-(1H-imidazol-1-yl)-N-((1r,4r)-4-((2,2,2-trifluoroethyl)amino)cyclohexyl)pyrido[2,3-d]pyrimidine-4-carboxamide]: the pIC50 in data set [1] is at least 7.40. For the same molecule, the concentration at 2 h in data set [2] (setting [3]) worked out at 572 nM; in data set [2] (setting [4]), 236 nM; in data set [2] (setting [5]), 6310 nM; in data set [2] (setting [6]), 2540 nM. Also, in data set [2] (brain), the Kp at 2 h worked out at 0.09. In data set [2], the “brain permeability (in words)” value is “good brain permeability”.

As to `O=C(N[C@H]1CC[C@H](N2CCC(F)(F)C2)CC1)c1nc(-n2ccnc2)nn2cccc12` [Example 12, N-((1r,4r)-4-(3,3-difluoropyrrolidin-1-yl)cyclohexyl)-2-(1H-imidazol-1-yl)pyrrolo[2,1-f][1,2,4]triazine-4-carboxamide], in data set [1], the negative-log IC50 (pIC50) is at least 7.40. Further, the concentration at 2 h in data set [2] (setting [3]) was 8370 nM; in data set [2] (setting [4]), 575 nM; in data set [2] (setting [5]) it was 12600 nM; in data set [2] (setting [6]), 788 nM. Moreover, the Kp at 2 h in data set [2] (brain) is 0.79. For the same molecule, the “brain permeability (in words)” value in data set [2] is “good brain permeability”.

Regarding `O=C(N[C@H]1CC[C@H](N2CC[C@H](F)C2)CC1)c1nc(-n2ccnc2)nn2cccc12` [Example 13, N-((1S,4r)-4-((S)-3-fluoropyrrolidin-1-yl)cyclohexyl)-2-(1H-imidazol-1-yl)pyrrolo[2,1-f][1,2,4]triazine-4-carboxamide], in data set [1], the pIC50 was at least 7.40. Moreover, the concentration at 2 h in data set [2] (setting [3]) was 3380 nM; in data set [2] (setting [4]), 189 nM; in data set [2] (setting [5]), 3660 nM; in data set [2] (setting [6]), 809 nM. Also, the Kp at 2 h in data set [2] (brain) was 0.23. In addition, the “brain permeability (in words)” value in data set [2] is listed as “good brain permeability”.

Regarding `O=C(N[C@H]1CC[C@H](N2CC[C@@H](F)C2)CC1)c1nc(-n2ccnc2)nn2cccc12` [Example 14, N-((1R,4r)-4-((R)-3-fluoropyrrolidin-1-yl)cyclohexyl)-2-(1H-imidazol-1-yl)pyrrolo[2,1-f][1,2,4]triazine-4-carboxamide], the pIC50 in data set [1] is at least 7.40. For the same molecule, the concentration at 2 h was 3320 nM in data set [2] (setting [3]), 181 nM in data set [2] (setting [4]), 3930 nM in data set [2] (setting [5]) and 959 nM in data set [2] (setting [6]). Further, in data set [2] (brain), the Kp at 2 h was determined as 0.19. Moreover, the “brain permeability (in words)” value in data set [2] was “good brain permeability”.

With `O=C(N[C@H]1CC[C@H](NCC(F)(F)F)CC1)c1cn2ccnc2c(-n2ccnc2)n1` [Example 19, 8-(1H-imidazol-1-yl)-N-((1r,4r)-4-((2,2,2-trifluoroethyl)amino)cyclohexyl) imidazo[1,2-a]pyrazine-6-carboxamide], the pIC50 in data set [1] is at least 7.40. Moreover, the concentration at 2 h in data set [2] (setting [3]) came to 864 nM; in data set [2] (setting [4]) it was 218 nM; in data set [2] (setting [5]), 5010 nM; in data set [2] (setting [6]), 954 nM. Moreover, the Kp at 2 h in data set [2] (brain) came to 0.22. Besides, the “brain permeability (in words)” value in data set [2] is “good brain permeability”.

For the molecule `O=C(N[C@H]1CC[C@H](NCC(F)(F)F)CC1)c1cn2ncnc2c(-n2ccnc2)n1` [Example 20, 8-(1H-imidazol-1-yl)-N-((1r,4r)-4-((2,2,2-trifluoroethyl)amino)cyclohexyl)-[1,2,4]triazolo[1,5-a]pyrazine-6-carboxamide], the pIC50 in data set [1] was at least 7.40. Besides, the concentration at 2 h in data set [2] (setting [3]) stood at 1420 nM; in data set [2] (setting [4]), 481 nM; in data set [2] (setting [5]), 17900 nM; in data set [2] (setting [6]), 2630 nM. For the same molecule, the Kp at 2 h in data set [2] (brain) turned out to be 0.18. Moreover, the “brain permeability (in words)” value in data set [2] is “good brain permeability”.

On to `O=C(N[C@H]1CC[C@H](NCC(F)(F)F)CC1)c1cn2nccc2c(-n2ccnc2)n1` [Example 21, 4-(1H-imidazol-1-yl)-N-((1r,4r)-4-((2,2,2-trifluoroethyl)amino)cyclohexyl)pyrazolo[1,5-a]pyrazine-6-carboxamide], for which the pIC50 in data set [1] was at least 7.40. Besides, the concentration at 2 h in data set [2] (setting [3]) is 1500 nM; in data set [2] (setting [4]) it was 507 nM; in data set [2] (setting [5]), 8220 nM; in data set [2] (setting [6]), 2470 nM. In data set [2] (brain), the Kp at 2 h came to 0.2. Further, the “brain permeability (in words)” value in data set [2] is recorded as “good brain permeability”.

Take `O=C(N[C@H]1CC[C@H](NCC(F)(F)F)CC1)c1nc(-n2ccnc2)nn2cccc12` [Example 29, 2-(1H-imidazol-1-yl)-N-((1r,4r)-4-((2,2,2-trifluoroethyl)amino)cyclohexyl)pyrrolo[2,1-f][1,2,4]triazine-4-carboxamide]: the pIC50 in data set [1] is at least 7.40. For the same molecule, the concentration at 2 h in data set [2] (setting [3]) is 4920 nM; in data set [2] (setting [4]), 319 nM; in data set [2] (setting [5]) it was 19100 nM; in data set [2] (setting [6]) it was 840 nM. For the same molecule, the Kp at 2 h in data set [2] (brain) was found to be 0.39. Besides, in data set [2], the “brain permeability (in words)” value was “good brain permeability”.

Take `O=C(N[C@H]1CC[C@H](N2CCC(F)(F)C2)CC1)c1cn2ccnc2c(-n2ccnc2)n1` [Example 41, N-((1r,4r)-4-(3,3-difluoropyrrolidin-1-yl)cyclohexyl)-8-(1H-imidazol-1-yl) imidazo[1,2-a]pyrazine-6-carboxamide]: the pIC50 in data set [1] is at least 7.40. Further, the concentration at 2 h in data set [2] (setting [3]) came to 1580 nM; in data set [2] (setting [4]) it was 241 nM; in data set [2] (setting [5]), 10600 nM; in data set [2] (setting [6]) it was 2160 nM. Moreover, in data set [2] (brain), the Kp at 2 h worked out at 0.11. In addition, in data set [2], the “brain permeability (in words)” value is “good brain permeability”.

Take `O=C(N[C@H]1CC[C@H](N2CC(F)(F)C2)CC1)c1cn2ncnc2c(-n2ccnc2)n1` [Example 45, N-((1r,4r)-4-(3,3-difluoroazetidin-1-yl)cyclohexyl)-8-(1H-imidazol-1-yl)-[1,2,4]triazolo[1,5-a]pyrazine-6-carboxamide]: in data set [1], the pIC50 was at least 7.40. Moreover, the concentration at 2 h in data set [2] (setting [3]) was determined as 2160 nM; in data set [2] (setting [4]), 555 nM; in data set [2] (setting [5]), 9340 nM; in data set [2] (setting [6]), 3490 nM. Moreover, in data set [2] (brain), the Kp at 2 h worked out at 0.16. Also, in data set [2], the “brain permeability (in words)” value is “good brain permeability”.

As for `O=C(N[C@H]1CC[C@H](N2CCC(F)(F)C2)CC1)c1cn2ncnc2c(-n2ccnc2)n1` [Example 48, N-((1r,4r)-4-(3,3-difluoropyrrolidin-1-yl)cyclohexyl)-8-(1H-imidazol-1-yl)-[1,2,4]triazolo[1,5-a]pyrazine-6-carboxamide], the pIC50 in data set [1] was at least 7.40. Moreover, the concentration at 2 h in data set [2] (setting [3]) was 2570 nM; in data set [2] (setting [4]) it was 403 nM; in data set [2] (setting [5]), 8000 nM; in data set [2] (setting [6]), 1980 nM. The Kp at 2 h in data set [2] (brain) worked out at 0.2. Also, in data set [2], the “brain permeability (in words)” value is on record as “good brain permeability”.
